Laboratory results: patent US7812037B2, “Dual antiplatelet/anticoagulant pyridoxine analogs” (Medicure International, Inc., priority 2004, dated 2010)

Legend:
[1] = biological target: T1, Human Thrombin (Homo sapiens, UniProt P00734); experiment: Determination of Anti-Thrombin (Factor IIa) Activity; type: biochemical; details: competitive inhibition; substrate Pefachrome Thr; pH 8.3
T1 construct: Determination of Anti-Thrombin (Factor IIa) Activity; purchased Calbiochem
Procedure: The test compounds (40 μL) adjusted to various concentrations (0.25 to 100 μM) were incubated with Human Thrombin (Calbiochem) enzyme (5 nM) in 31 mM Tris buffer (pH 8.3) containing 81 mM sodium chloride and 0.63% bovine serum albumin (fraction V)(80 μL) at room temperature for about 30 minutes. 80 μL of Pefachrome® Thr (Pentapharm) was adjusted to various concentrations, from 62.5 μM to 1.25 mM. The activity was measured at about 37° C. by monitoring absorbance at 405 nm for about 15 minutes using a FLUOstar OPTIMA™. Control sample was the solvent alone. Each test compound was analyzed twice using 4 concentrations of compound plus control (in duplicate) with 5 concentrations of substrate (50, 100, 200, 300 and 500 μM). The specific activity (ΔA405/min/nM enzyme) was determined for each data point. The Ki for competitive inhibition was then determined for each test compound using the Enzyme Kinetics module of Sigmaplot 8.0 (SPSS).

[2] = system: platelets (platelet rich plasma); experiment: Inhibition of platelet aggregation, thrombin receptor activating peptide (TRAP) as agonist; type: cell-based; details: TRAP 12 μM, human PRP, read-out: % Reduction in Aggregation TRAP (12 μM); for inhibition at 30 µM: compound 30 μM
Procedure: (§1) Platelet rich plasma (PRP) was obtained by drawing whole blood from normal human donors (not on any medication) into sodium citrate tubes (3.2%), and centrifuging at 160×g for about 10 minutes. Platelet poor plasma (PPP) was obtained by centrifuging the remainder of the sample after the platelets were removed at 800×g for about 10 minutes. The PRP was adjusted to a count of 280×10^9/L using a mixture of PRP and PPP. The platelets (200 μL) were incubated with the test compounds (25 μL) adjusted to various concentrations (5, 10, 20, 30, 50, and 100 μM) for about 30 minutes at room temperature (approximate final platelet count in the incubation mixture of 250×10^9/L). The samples were incubated for about 3 minutes at about 37° C., and then transferred to the mixing wells of a Chrono-log 4 channel aggregometer (Chrono-log Corp., Havertown, Pa.). After baselines were established, agonist (25 μL of 40 μM ADP (Sigma, St. Louis, Mo.) or 25 μL of 50 μg/mL and 10 μg/mL collagen (Helena Laboratories, Beaumont, Tex.) or 25 μL of 120 μM thrombin receptor activating peptide (TRAP) (Sigma)) was then added. Aggregation was monitored for 5 minutes at 37° C. with stirring (1000 rpm). The amplitude and slope of each tracing were calculated to determine the amount of aggregation. Control samples were performed using only solvent. The % reduction in aggregation was calculated for each sample compared to the proper solvent control.

[3] = system: platelets (platelet rich plasma); experiment: Inhibition of platelet aggregation, ADP as agonist; type: cell-based; details: ADP 4 μM, human PRP, read-out: % Reduction in Aggregation ADP (4 μM); for inhibition at 30 µM: compound 30 μM
Procedure: as §1

[4] = system: platelets (platelet rich plasma); experiment: Inhibition of platelet aggregation, collagen as agonist; type: cell-based; details: human PRP; for inhibition at 30 µM: compound 30 μM; for inhibition at 5 µM: compound 5 μM
Procedure: as §1

[5] = biological target: T2, Human FXa (Homo sapiens, UniProt P00742); experiment: Determination of Anti-Factor Xa (Fxa) Activity; type: biochemical; details: competitive inhibition; substrate Pefachrome Xa; pH 7.5
T2 construct: Determination of Anti-Factor Xa (Fxa) Activity; purchased Calbiochem
T2 sequence (P00742 235-488 limits assumed): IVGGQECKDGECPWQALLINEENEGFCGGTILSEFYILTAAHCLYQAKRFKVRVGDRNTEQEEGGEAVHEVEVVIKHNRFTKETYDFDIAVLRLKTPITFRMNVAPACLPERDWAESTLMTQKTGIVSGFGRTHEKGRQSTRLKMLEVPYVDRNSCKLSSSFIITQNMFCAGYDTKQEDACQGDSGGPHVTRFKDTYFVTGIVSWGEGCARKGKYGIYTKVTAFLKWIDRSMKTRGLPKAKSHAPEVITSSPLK
T2 sequence (P00742 41-179 partner limits assumed): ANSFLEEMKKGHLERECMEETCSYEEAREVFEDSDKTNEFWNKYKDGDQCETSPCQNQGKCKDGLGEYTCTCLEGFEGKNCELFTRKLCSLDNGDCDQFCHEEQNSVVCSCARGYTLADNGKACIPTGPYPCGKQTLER
Procedure: The test compounds (40 μL) adjusted to various concentrations (0.25 to 100 μM) were incubated with 5 nM Human FXa (Calbiochem, San Diego, Calif.) enzyme in 125 mM Tris [Tris(hydroxymethyl)aminomethane] buffer (pH 7.5) containing 375 mM sodium chloride and 0.25% polyethylene glycol (MW 8000) (80 μL) at room temperature for about 30 minutes. 80 μL of synthetic substrate Pefachrome® Xa (Pentapharm, Basel, Switzerland), adjusted to various concentrations from 125 μM to 1.25 mM, was added. The activity was measured at 37° C. by monitoring absorbance at 405 nm for 15 minutes using a FLUOstar OPTIMA™ (BMG Labtech GmbH, Offenburg, Germany) microplate reader. Control sample was the solvent alone. Each test compound was analyzed twice using 4 concentrations of compound plus control (in duplicate) with 5 concentrations of substrate (50, 100, 200, 300 and 500 μM). The specific activity (ΔA405/min/nM enzyme) was determined for each data point. The Ki for competitive inhibition was then determined for each test compound using the Enzyme Kinetics module of Sigmaplot 8.0 (SPSS Inc., Chicago, Ill.).

[6] = collagen 1 μg/mL, read-out: % Reduction in Aggregation Collagen (1 μg/mL)
[7] = collagen 5 μg/mL, read-out: % Reduction in Aggregation Collagen (5 μg/mL)

Row | Ki [1] | Ki [5] | SMILES | inhibition at 30 µM [2] | inhibition at 30 µM [3] | inhibition at 30 µM [4, 6] | inhibition at 30 µM [4, 7] | inhibition at 10 µM ([2]; compound 10 μM) | inhibition at 10 µM ([3]; compound 10 μM) | inhibition at 10 µM ([4]; compound 10 μM, collagen 1 μg/mL, read-out: % Reduction in Aggregation Collagen (1 μg/mL)) | inhibition at 50 µM ([2]; compound 50 μM) | inhibition at 50 µM ([3]; compound 50 μM) | inhibition at 50 µM ([4]; compound 50 μM, collagen 1 μg/mL, read-out: % Reduction in Aggregation Collagen (1 μg/mL)) | inhibition at 5 µM ([2]; compound 5 μM) | inhibition at 5 µM ([3]; compound 5 μM) | inhibition at 5 µM [4, 6] | inhibition at 5 µM [4, 7]
1 | 3770 nM | 320 nM | Cc1ncc(CNc2ccc(-c3ccc(C(=N)N)cc3)cc2)c(C)c1OCc1ccc(C(=N)N)cc1 [Compound 25, 4′-{[5-(4-Carbamimidoyl-benzyloxy)-4,6-dimethyl-pyridin-3-ylmethyl]-amino}-biphenyl-4-carboxamidine] | 95% | 93% | 96% | 52% | – | – | – | – | – | – | – | – | – | –
2 | 4600 nM | 140 nM | Cc1ncc(CNc2ccc(-c3ccc(C(=N)N)cc3)cc2)c(C)c1OCc1cccc(C(=N)N)c1 [Compound 29, 4′-{[5-(3-Carbamimidoyl-benzyloxy)-4,6-dimethyl-pyridin-3-ylmethyl]-amino}-biphenyl-4-carboxamidine] | 32% | 52% | 32% | 15% | – | – | – | – | – | – | – | – | – | –
3 | 62 nM | 1340 nM | Cc1ncc(CNc2ccc(C(=N)N)cc2)c(C)c1OCc1ccc(C(=N)N)cc1 [Compound 31, 4-{[5-(4-Carbamimidoyl-benzyloxy)-4,6-dimethyl-pyridin-3-ylmethyl]-amino}-benzamidine] | – | – | – | – | 84% | 80% | 83% | – | – | – | – | – | – | –
4 | 31 nM | 284 nM | Cc1ncc(CNc2ccc(C(=N)N)cc2)c(C)c1OCc1cccc(C(=N)N)c1 [Compound 33, 4-{[5-(3-Carbamimidoyl-benzyloxy)-4,6-dimethyl-pyridin-3-ylmethyl]-amino}-benzamidine] | – | – | – | – | – | – | – | 79% | 84% | 81% | – | – | – | –
5 | 848 nM | 6200 nM | Cc1ncc(CNc2ccc(-c3ccc(C(=N)N)cc3)cc2)c(CNCCCCCC(=O)O)c1OCc1ccc(C(=N)N)cc1 [Compound 56, 6-({3-(4-Carbamimidoyl-benzyloxy)-5-[(4′-carbamimidoyl-biphenyl-4-ylamino)-methyl]-2-methyl-pyridin-4-ylmethyl}-amino) hexanoic acid] | – | – | – | – | – | – | – | – | – | – | 90% | 96% | 91% | 63%
6 | 11000 nM | 25000 nM | Cc1ncc(CNc2ccc(-c3ccc(C(=N)N)cc3)cn2)c(CO)c1OCc1ccc(C(=N)N)cc1 [Compound 60] | 89% | 87% | 47% | 26% | – | – | – | – | – | – | – | – | – | –
